Measurements published in US6664214B1, “Uracil compounds and use thereof” (Sumitomo Chemical Company, Limited, priority 1999, dated 2003).

How the values were obtained:
[1] = tested on: ivyleaf morningglory; experiment: Test Example 1: foliar treatment on upland field; type: in vivo, Ipomoea hederacea; conditions: 125 g/ha, 8 days after application
Protocol: (§1) In the examples, the compounds are identified by the Compound Numbers as in Tables 1 to 3.
(§2) A cylindrical plastic pot having a diameter of 10 cm and a depth of 10 cm was filled with soil and seeded with ivyleaf momingglory, velvetleaf and bamyardgrass. These test plants were grown in a greenhouse for 9 days. Then each of compounds 1-1, 2-1, 2-2, 3-1 and 3-101 was formulated into an emulsifiable concentrate according to Formulation Example 2 and then diluted to the prescribed amount with water containing a spreading agent and the dilution was uniformly sprayed over the foliage of the test plants with sprayer at a rate of 1000 liters per hectare. After the application, the test plants were grown in the greenhouse for 8 days, and the herbicidal activity were determined.

[2] = tested on: velvetleaf; experiment: Test Example 1: foliar treatment on upland field; type: in vivo, Abutilon theophrasti; conditions: 125 g/ha, 8 days after application
Protocol: as §1, §2

[3] = tested on: barnyardgrass; experiment: Test Example 1: foliar treatment on upland field; type: in vivo, Echinochloa crus-galli; conditions: 125 g/ha, 8 days after application
Protocol: as §1, §2

[4] = tested on: velvetleaf; experiment: Test Example 2: soil surface treatment on upland field; type: in vivo, Abutilon theophrasti; conditions: 500 g/ha, 12 days after application
From the text: (§3) In the examples, the compounds are identified by the Compound Numbers as in Tables 1 to 3. […] A cylindrical plastic pot having a diameter of 10 cm and a depth of 10 cm was filled with soil and seeded with velvetleaf. Then each of compounds 1-1, 2-1, 2-2, 3-1 and 3-101 was formulated into an emulsifiable concentrate according to Formulation Example 2 and then diluted to the prescribed amount with water and dilution was uniformly sprayed over the surface of the soil with sprayer at a rate of 1000 liters per hectare. After the application, the test plants were grown in a greenhouse for 12 days, and the herbicidal activity was examined.

[5] = tested on: ivyleaf morningglory; experiment: Test Example 3: foliar treatment on upland field (Table 4); type: in vivo, Ipomoea hederacea; parameters: key: 0: little difference in the degree of germination or growth between the treated plants and the untreated plants at the time of examination; 10: the treated plants died completely or their germination or growth was completely inhibited; conditions: 125 g/ha active ingredient, examined 16 days after application, index 0-10
Protocol: (§4) In the examples, the compounds are identified by the Compound Numbers as in Tables 1 to 3. […] A cylindrical plastic pot having a diameter of 10 cm and a depth of 10 cm was filled with soil and seeded with ivyleaf momingglory, velvetleaf and barnyardgrass. These test plants were grown in a greenhouse for 10 days. Then each of compounds listed below was formulated into an emulsifiable concentrate according to Formulation Example 2 and then diluted to the prescribed amount with water containing a spreading agent and the dilution was uniformly sprayed over the foliage of the test plants with sprayer at a rate of 1000 liters per hectare. After the application, the test plants were grown in the greenhouse for 16 days, and the herbicidal activity were determined.

[6] = tested on: velvetleaf; experiment: as above; type: in vivo, Abutilon theophrasti; parameters: key: 0: little difference in the degree of germination or growth between the treated plants and the untreated plants at the time of examination; 10: the treated plants died completely or their germination or growth was completely inhibited; conditions: 125 g/ha active ingredient, examined 16 days after application, index 0-10
Protocol: as §4

[7] = tested on: barnyardgrass; experiment: as above; type: in vivo, Echinochloa crus-galli; parameters: key: 0: little difference in the degree of germination or growth between the treated plants and the untreated plants at the time of examination; 10: the treated plants died completely or their germination or growth was completely inhibited; conditions: 125 g/ha active ingredient, examined 16 days after application, index 0-10
Protocol: as §4

[8] = tested on: ivyleaf morningglory; experiment: Test Example 4: soil surface treatment on upland field (Table 5); type: in vivo, Ipomoea hederacea; parameters: key: 0: little difference in the degree of germination or growth between the treated plants and the untreated plants at the time of examination; 10: the treated plants died completely or their germination or growth was completely inhibited; conditions: 500 g/ha active ingredient, examined 12 days after application, index 0-10
From the text: as §3, with “seeded ivyleaf morningglory, velvetleaf and barnyardgrass.” for “seeded with velvetleaf.”, “compounds listed below” for “compounds 1-1, 2-1, 2-2, 3-1 and 3-101”, “at the” for “at a”

[9] = tested on: velvetleaf; experiment: as above; type: in vivo, Abutilon theophrasti; parameters: key: 0: little difference in the degree of germination or growth between the treated plants and the untreated plants at the time of examination; 10: the treated plants died completely or their germination or growth was completely inhibited; conditions: 500 g/ha active ingredient, examined 12 days after application, index 0-10
From the text: as §3, with “seeded ivyleaf morningglory, velvetleaf and barnyardgrass.” for “seeded with velvetleaf.”, “compounds listed below” for “compounds 1-1, 2-1, 2-2, 3-1 and 3-101”, “at the” for “at a”

[10] = tested on: barnyardgrass; experiment: as above; type: in vivo, Echinochloa crus-galli; parameters: key: 0: little difference in the degree of germination or growth between the treated plants and the untreated plants at the time of examination; 10: the treated plants died completely or their germination or growth was completely inhibited; conditions: 500 g/ha active ingredient, examined 12 days after application, index 0-10
From the text: as §3, with “seeded ivyleaf morningglory, velvetleaf and barnyardgrass.” for “seeded with velvetleaf.”, “compounds listed below” for “compounds 1-1, 2-1, 2-2, 3-1 and 3-101”, “at the” for “at a”

[11] = tested on: large crabgrass; experiment: Test Example 5: foliar treatment on upland field (Table 6); type: in vivo, Digitaria sanguinalis; parameters: key: 0: little difference in the degree of germination or growth between the treated plants and the untreated plants at the time of examination; 10: the treated plants died completely or their germination or growth was completely inhibited; conditions: 125 g/ha, 19 days after application, index 0 to 10
Protocol: In the examples, the compounds are identified by the Compound Numbers as in Tables 1 to 3. […] A pot for plug seedlings seeded with large crabgrass. The test plant was grown in a greenhouse for 14 days, then transplanted into a plastic pot having an area of 17×12 cm^2 and a depth of 7 cm, and further the test plants were grown in the greenhouse for 8 days. Then each of compounds listed below was formulated into an emulsifiable concentrate according to Formulation Example 2 and then diluted to the prescribed amount with water containing a spreading agent and the dilution was uniformly sprayed over the foliage of the test plants with sprayer at a rate of 1000 liters per hectare. After the application, the test plants were grown in the greenhouse for 19 days, and the herbicidal activity were determined.

[12] = tested on: large crabgrass; experiment: Test Example 6: foliar treatment on upland field (Table 7); type: in vivo, Digitaria sanguinalis; parameters: key: 0: little difference in the degree of germination or growth between the treated plants and the untreated plants at the time of examination; 10: the treated plants died completely or their germination or growth was completely inhibited; conditions: 8 g/ha, 19 days after application, index 0 to 10
Protocol: (§5) In the examples, the compounds are identified by the Compound Numbers as in Tables 1 to 3. […] A plastic pot having a area of 27×20 cm^2 and a depth of 7.5 cm filled with soil, seeded with barnyardgrass. The test plant was grown in a greenhouse for 4 days. The seedlings of large crabgrass and giant foxtail, which were seeded into a pot for plug seedlings and grown in a greenhouse for 14 days, were transplanted into the plastic pot. The test plants, further, were grown in the greenhouse for 8 days. Then each of compound listed below was formulated into an emulsifiable concentrate according to Formulation Example 2 and then diluted to the prescribed amount with water containing a spreading agent and the dilution was uniformly sprayed over the foliage of the test plants with sprayer at a rate of 1000 liters per hectare. After the application, the test plants were grown in the greenhouse for 19 days, and the herbicidal activity were determined.

[13] = tested on: giant foxtail; experiment: as above; type: in vivo, Setaria faberi; parameters: key: 0: little difference in the degree of germination or growth between the treated plants and the untreated plants at the time of examination; 10: the treated plants died completely or their germination or growth was completely inhibited; conditions: 8 g/ha, 19 days after application, index 0 to 10
Protocol: as §5

[14] = tested on: barnyardgrass; experiment: as above; type: in vivo, Echinochloa crus-galli; parameters: key: 0: little difference in the degree of germination or growth between the treated plants and the untreated plants at the time of examination; 10: the treated plants died completely or their germination or growth was completely inhibited; conditions: 8 g/ha, 19 days after application, index 0 to 10
Protocol: as §5

Q: What does the source list for `COC(=O)C(C)Oc1ccc(COc2cc(-n3c(=O)cc(C(F)(F)F)n(C)c3=O)c(F)cc2Cl)cc1` (stereo not shown) [Compound 1-1, methyl 2-[4-({2-chloro-4-fluoro-5-[3-methyl-2,6-dioxo-4-(trifluoromethyl)-1,2,3,6-tetrahydropyrimidine-1-yl]phenoxyl}methyl)phenoxy]propionate]?
A: growth of ivyleaf morningglory [1]: completely controlled; growth of velvetleaf [2]: completely controlled; growth of barnyardgrass [3]: completely controlled; germination of velvetleaf [4]: completely controlled; Herbicidal effect Ivyleaf morningglory [5]: 10; Herbicidal effect Velvetleaf [6]: 10; Herbicidal effect Barnyardgrass [7]: 10; Herbicidal effect Ivyleaf morningglory [8]: 10; Herbicidal effect Velvetleaf [9]: 10; Herbicidal effect Barnyardgrass [10]: 9; Herbicidal effect Large crabgrass [11]: 10; Herbicidal effect Large crabgrass [12]: 10; Herbicidal effect Giant foxtail [13]: 9; Herbicidal effect Barnyard-grass [14]: 10

Q: Which “growth of ivyleaf morningglory” value [1] does the source give for `COC(=O)C(C)Oc1cccc(COc2cc(-n3c(=O)cc(C(F)(F)F)n(C)c3=O)c(F)cc2Cl)c1` (stereo not shown) [Compound 2-1, methyl 2-[3-({2-chloro-4-fluoro-5-[3-methyl-2,6-dioxo-4-(trifluoromethyl)-1,2,3,6-tetrahydropyrimidine-1-yl]phenoxy}methyl)phenoxy]propionate] here?
A: completely controlled

Q: And the growth of velvetleaf [2]?
A: completely controlled

Q: And the growth of barnyardgrass [3]?
A: completely controlled

Q: And the germination of velvetleaf [4]?
A: completely controlled

Q: What about the “Herbicidal effect Ivyleaf morningglory” value [5] of the same compound?
A: 10

Q: What about the “Herbicidal effect Velvetleaf” value [6] of the same compound?
A: 10

Q: What about the “Herbicidal effect Barnyardgrass” value [7] of the same compound?
A: 10

Q: What about the “Herbicidal effect Ivyleaf morningglory” value [8] of the same compound?
A: 10

Q: What about the “Herbicidal effect Velvetleaf” value [9] of the same compound?
A: 10

Q: What about the “Herbicidal effect Barnyardgrass” value [10] of the same compound?
A: 10

Q: What about the “Herbicidal effect Large crabgrass” value [11] of the same compound?
A: 10

Q: What about the “Herbicidal effect Large crabgrass” value [12] of the same compound?
A: 10

Q: What about the “Herbicidal effect Giant foxtail” value [13] of the same compound?
A: 10

Q: And the “Herbicidal effect Barnyard-grass” value [14]?
A: 10
